Laboratory results taken from US12691095B2, “Modulators of TNF-alpha activity” (Forward Therapeutics, Inc., priority 2024, dated 2026).

Assays:
[1] = biological target: T1, TNF-α (Homo sapiens, UniProt P01375); experiment: TNF-α Induced HEK Blue Cellular Assay; format: cell-based; settings: HEK Blue TNFα reporter cells stimulated with TNF-α, 24 hrs, secreted alkaline phosphatase (QUANTI-Blue, 620 nm)
T1 construct: purchased R&D 210-TA-020/CF
Method: (§1) Test articles were diluted in DMSO and serially diluted into 384 well assay plate (Corning 3765), at final concentrations ranging from […] to 0.5 nM. HEK Blue™ TNFα reporter cells were added at a final density of 10,000 cell per well in assay media [DMEM (Gibco, cat #21063-029), 10% fetal bovine serum (ExcelBio, cat #FND500), 1% Penicillin-Streptomycin (Solarbio, cat #P1400-100]. TNF-α (R&D 210-TA-020/CF) was then added to the assay plate at a final concentration of […]. This plate was then incubated for 24 hrs at 37° C. and 5% CO2. Secreted alkaline phosphatase expression was then measured using QUANTI- Blue™ (Invivogen), according to manufacturer instructions and read on an Envision microplate reader at 620 nm.
(§2) Inhibition data for test compound over a range of concentration was plotted as percentage inhibition of the test compound (100%=maximum inhibition). IC50 values were determined after correcting for background [(sample read-mean of low control)/(mean of high control-mean of low control)] where by the low control is DMSO without stimulation and high control is DMSO with stimulation. The IC50 is defined as the concentration of test compound which produces 50% inhibition and was quantified using the 4 parameter logistic equation to fit the data.

[2] = biological target: T1, TNF-α; experiment: TNF-α Induced THP 1 dual Cellular Assay; format: cell-based; settings: THP1 dual cell reporter cells stimulated with TNF-α, 24 hrs, secreted alkaline phosphatase (QUANTI-Blue, 620 nm)
Method: as §1, with “THP1 dual cell” for “HEK Blue™ TNFα”, “QUANTI-Blue™” for “QUANTI- Blue™”
as §2, with “whereby” for “where by”, “4-parameter” for “4 parameter”

T1 sequence (P01375 77-233 limits assumed): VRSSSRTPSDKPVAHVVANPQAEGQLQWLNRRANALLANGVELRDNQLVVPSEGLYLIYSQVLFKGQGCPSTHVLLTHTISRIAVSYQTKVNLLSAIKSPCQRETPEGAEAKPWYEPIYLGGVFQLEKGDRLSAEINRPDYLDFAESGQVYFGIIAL

| Compound | IC50 [1] | IC50 [2] |
| --- | --- | --- |
| [2H]C([2H])([2H])N1C(=O)c2cccc(Cl)c2[C@H]2C[C@@H]1c1nc3ccc(-c4ccc(P(C)(C)=O)c(F)c4)cc3n12 [Example 1, (7R,14R)-1-chloro-11-(4-(dimethylphosphoryl)-3-fluorophenyl)-6-(methyl-d3)-6,7-dihydro-7,14-methanobenzo[f]benzo[4,5]imidazo[1,2-a][1,4]diazocin-5(14H)-one] | ≤ 100 nM |  |
| [2H]C([2H])([2H])N1C(=O)c2cccc(Cl)c2[C@H]2C[C@@H]1c1nc3ccc(-c4ccc(P(C)(C)=O)nc4)cc3n12 [Example 2, (7R,14R)-1-chloro-11-(6-(dimethylphosphoryl)pyridin-3-yl)-6-(methyl-d3)-6,7-dihydro-7,14-methanobenzo[f]benzo[4,5]imidazo[1,2-a][1,4]diazocin-5(14H)-one] | ≤ 100 nM |  |
| [2H]C([2H])([2H])N1C(=O)c2c(C)ccc(Cl)c2[C@H]2C[C@@H]1c1nc3ccc(-c4ccc(P(C)(C)=O)c(F)c4)cc3n12 [Example 3, (7R,14R)-1-chloro-11-(4-(dimethylphosphoryl)-3-fluorophenyl)-4-methyl-6-(methyl-d3)-6,7-dihydro-7,14-methanobenzo[f]benzo[4,5]imidazo[1,2-a][1,4]diazocin-5(14H)-one] | ≤ 100 nM |  |
| CP(C)(=O)c1ncc(-c2ccc3nc4n(c3c2)[C@@H]2C[C@H]4NC(=O)c3cccc(Cl)c32)cn1 [Example 4, (7R,14R)-1-chloro-11-(2-(dimethylphosphoryl)pyrimidin-5-yl)-6,7-dihydro-7,14-methanobenzo[f]benzo[4,5]imidazo[1,2-a][1,4]diazocin-5(14H)-one] | ≤ 100 nM |  |
| CP(C)(=O)c1ccc(-c2ccc3nc4n(c3c2)[C@@H]2C[C@H]4NC(=O)c3cccc(Cl)c32)cn1 [Example 5, (7R,14R)-1-chloro-11-(6-(dimethylphosphoryl)pyridin-3-yl)-6,7-dihydro-7,14-methanobenzo[f]benzo[4,5]imidazo[1,2-a][1,4]diazocin-5(14H)-one] | ≤ 100 nM |  |
| [2H]C([2H])([2H])N1C(=O)c2c(C)ccc(Cl)c2[C@H]2C[C@@H]1c1nc3ccc(-c4ccc(P(C)(C)=O)nc4)cc3n12 [Example 6, (7R,14R)-1-chloro-11-(6-(dimethylphosphoryl)pyridin-3-yl)-4-methyl-6-(methyl-d3)-6,7-dihydro-7,14-methanobenzo[f]benzo[4,5]imidazo[1,2-a][1,4]diazocin-5(14H)-one] | ≤ 100 nM |  |
| [2H]C([2H])([2H])N1C(=O)c2cccc(Cl)c2[C@H]2C[C@@H]1c1nc3ccc(-c4ccc(P(C)(C)=O)cc4)cc3n12 [Example 7, (7R,14R)-1-chloro-11-(4-(dimethylphosphoryl)phenyl)-6-(methyl-d3)-6,7-dihydro-7,14-methanobenzo[f]benzo[4,5]imidazo[1,2-a][1,4]diazocin-5(14H)-one] | ≤ 100 nM |  |
| [2H]C([2H])([2H])N1C(=O)c2cc(F)cc(F)c2[C@H]2C[C@@H]1c1nc3ccc(-c4ccc(P(C)(C)=O)c(F)c4)cc3n12 [Example 13, (7R,14R)-11-(4-(dimethylphosphoryl)-3-fluorophenyl)-1,3-difluoro-6-(methyl-d3)-6,7-dihydro-7,14-methanobenzo[f]benzo[4,5]imidazo[1,2-a][1,4]diazocin-5(14H)-one] |  | ≤ 100 nM |
| [2H]C([2H])([2H])N1C(=O)c2cccc(F)c2[C@H]2C[C@@H]1c1nc3ccc(-c4ccc(P(C)(C)=O)c(F)c4F)cc3n12 [Example 14, (7R,14R)-11-(4-(dimethylphosphoryl)-2,3-difluorophenyl)-1-fluoro-6-(methyl-d3)-6,7-dihydro-7,14-methanobenzo[f]benzo[4,5]imidazo[1,2-a][1,4]diazocin-5(14H)-one] |  | ≤ 100 nM |
| [2H]C([2H])([2H])N1C(=O)c2ccc(F)c(F)c2[C@H]2C[C@@H]1c1nc3ccc(-c4ccc(P(C)(C)=O)c(F)c4)cc3n12 [Example 15, (7R,14R)-11-(4-(dimethylphosphoryl)-3-fluorophenyl)-1,2-difluoro-6-(methyl-d3)-6,7-dihydro-7,14-methanobenzo[f]benzo[4,5]imidazo[1,2-a][1,4]diazocin-5(14H)-one] |  | ≤ 100 nM |
| [2H]C([2H])([2H])N1C(=O)c2cccc(F)c2[C@H]2C[C@@H]1c1nc3ccc(-c4ccc(P(C)(C)=O)cc4)cc3n12 [Example 16, (7R,14R)-11-(4-(dimethylphosphoryl)phenyl)-1-fluoro-6-(methyl-d3)-6,7-dihydro-7,14-methanobenzo[f]benzo[4,5]imidazo[1,2-a][1,4]diazocin-5(14H)-one] |  | ≤ 100 nM |
| [2H]C([2H])([2H])N1C(=O)c2cccc(F)c2[C@H]2C[C@@H]1c1nc3ccc(-c4ccc(P(C)(C)=O)cc4F)cc3n12 [Example 17, (7R,14R)-11-(4-(dimethylphosphoryl)-2-fluorophenyl)-1-fluoro-6-(methyl-d3)-6,7-dihydro-7,14-methanobenzo[f]benzo[4,5]imidazo[1,2-a][1,4]diazocin-5(14H)-one] |  | ≤ 100 nM |
| [2H]C([2H])([2H])N1C(=O)c2cccc(Br)c2[C@H]2C[C@@H]1c1nc3ccc(-c4ccc(P(C)(C)=O)c(F)c4)cc3n12 [Example 18, (7R,14R)-1-bromo-11-(4-(dimethylphosphoryl)-3-fluorophenyl)-6-(methyl-d3)-6,7-dihydro-7,14-methanobenzo[f]benzo[4,5]imidazo[1,2-a][1,4]diazocin-5(14H)-one] |  | ≤ 100 nM |

Results, then the compound that gave them:

| IC50 [1] | IC50 [2] | Compound |
| --- | --- | --- |
|  | ≤ 100 nM | [2H]C([2H])([2H])N1C(=O)c2cccc(Br)c2[C@H]2C[C@@H]1c1nc3ccc(-c4ccc(P(C)(C)=O)cc4F)cc3n12 [Example 19, (7R,14R)-1-bromo-11-(4-(dimethylphosphoryl)-2-fluorophenyl)-6-(methyl-d3)-6,7-dihydro-7,14-methanobenzo[f]benzo[4,5]imidazo[1,2-a][1,4]diazocin-5(14H)-one] |
|  | ≤ 100 nM | [2H]C([2H])([2H])N1C(=O)c2cccc(F)c2[C@H]2C[C@@H]1c1nc3cc(F)c(-c4ccc(P(C)(C)=O)cc4)cc3n12 [Example 20, (7R,14R)-11-(4-(dimethylphosphoryl)phenyl)-1,10-difluoro-6-(methyl-d3)-6,7-dihydro-7,14-methanobenzo[f]benzo[4,5]imidazo[1,2-a][1,4]diazocin-5(14H)-one] |
|  | ≤ 100 nM | [2H]C([2H])([2H])N1C(=O)c2cccc(F)c2[C@H]2C[C@@H]1c1nc3cc(F)c(-c4ccc(P(C)(C)=O)nc4)cc3n12 [Example 21, (7R,14R)-11-(6-(dimethylphosphoryl)pyridin-3-yl)-1,10-difluoro-6-(methyl-d3)-6,7-dihydro-7,14-methanobenzo[f]benzo[4,5]imidazo[1,2-a][1,4]diazocin-5(14H)-one] |
|  | ≤ 100 nM | [2H]C([2H])([2H])N1C(=O)c2cccc(F)c2[C@H]2C[C@]1(C)c1nc3ccc(-c4ccc(P(C)(C)=O)c(F)c4)cc3n12 [Example 22, (7R,14R)-11-(4-(dimethylphosphoryl)-3-fluorophenyl)-1-fluoro-7-methyl-6-(methyl-d3)-6,7-dihydro-7,14-methanobenzo[f]benzo[4,5]imidazo[1,2-a][1,4]diazocin-5(14H)-one] |
|  | ≤ 100 nM | [2H]C([2H])([2H])N1C(=O)c2cccc(F)c2[C@H]2C[C@@H]1c1nc3cc(F)c(-c4ccc(P(C)(C)=O)c(F)c4)cc3n12 [Example 23, (7R,14R)-11-(4-(dimethylphosphoryl)-3-fluorophenyl)-1,10-difluoro-6-(methyl-d3)-6,7-dihydro-7,14-methanobenzo[f]benzo[4,5]imidazo[1,2-a][1,4]diazocin-5(14H)-one] |
|  | ≤ 100 nM | [2H]C([2H])([2H])N1C(=O)c2cccc(F)c2[C@H]2C[C@@H]1c1nc3ccc(-c4ccc(P(C)(C)=O)c(N)c4)cc3n12 [Example 24, (7R,14R)-11-(3-amino-4-(dimethylphosphoryl)phenyl)-1-fluoro-6-(methyl-d3)-6,7-dihydro-7,14-methanobenzo[f]benzo[4,5]imidazo[1,2-a][1,4]diazocin-5(14H)-one] |
|  | ≤ 100 nM | [2H]C([2H])([2H])N1C(=O)c2cccc(F)c2[C@H]2C[C@@H]1c1nc3ccc(-c4ccc(P(C)(C)=O)c(NC)c4)cc3n12 [Example 25, (7R,14R)-11-(4-(dimethylphosphoryl)-3-(methylamino)phenyl)-1-fluoro-6-(methyl-d3)-6,7-dihydro-7,14-methanobenzo[f]benzo[4,5]imidazo[1,2-a][1,4]diazocin-5(14H)-one] |
